# Source: PubChem BioAssay (NCI)
#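 Growth conditions: 96-well plates. Treatment: test compound, 48 hours, 5 concentrations. Analysis: linear interpolation between bracketing concentrations; unreached endpoints set to highest concentration. Abbreviation: GI50, concentration required for 50% inhibition of growth. Definition used: TGI = concentration required for complete inhibition of growth.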
# Tests used:
# Assay in all cases: inhibition of tumour cell growth, NCI panel, 48 h
# 786-0 renal = tested on: 786-0 renal
# A498 renal = tested on: A498 renal
# A549 NSCLC = tested on: A549 NSCLC
# ACHN renal = tested on: ACHN renal
# BT-549 breast = tested on: BT-549 breast
# CAKI-1 renal = tested on: CAKI-1 renal
# CCRF-CEM leukemia = tested on: CCRF-CEM leukemia
# COLO 205 colon = tested on: COLO 205 colon
# DU-145 prostate = tested on: DU-145 prostate
# HCC-2998 colon = tested on: HCC-2998 colon
# HCT-116 colon = tested on: HCT-116 colon
# HCT-15 colon = tested on: HCT-15 colon
# HL-60(TB) leukemia = tested on: HL-60(TB) leukemia
# HOP-62 NSCLC = tested on: HOP-62 NSCLC
# HOP-92 NSCLC = tested on: HOP-92 NSCLC
# HS 578T breast = tested on: HS 578T breast
# HT29 colon = tested on: HT29 colon
# IGROV1 ovarian = tested on: IGROV1 ovarian
# K-562 leukemia = tested on: K-562 leukemia
# KM12 colon = tested on: KM12 colon
# LOX IMVI melanoma = tested on: LOX IMVI melanoma
# M14 melanoma = tested on: M14 melanoma
# MALME-3M melanoma = tested on: MALME-3M melanoma
# MDA-MB-231 breast = tested on: MDA-MB-231 breast
# MDA-MB-435 = tested on: MDA-MB-435
# MOLT-4 leukemia = tested on: MOLT-4 leukemia
# NCI-H226 lung = tested on: NCI-H226 lung
# NCI-H23 lung = tested on: NCI-H23 lung
# NCI-H460 lung = tested on: NCI-H460 lung
# NCI-H522 lung = tested on: NCI-H522 lung
# NCI/ADR-RES ovarian = tested on: NCI/ADR-RES ovarian
# OVCAR-3 ovarian = tested on: OVCAR-3 ovarian
# OVCAR-4 ovarian = tested on: OVCAR-4 ovarian
# OVCAR-5 ovarian = tested on: OVCAR-5 ovarian
# OVCAR-8 ovarian = tested on: OVCAR-8 ovarian
# PC-3 prostate = tested on: PC-3 prostate
# RPMI-8226 leukemia = tested on: RPMI-8226 leukemia
# RXF 393 renal = tested on: RXF 393 renal
# SF-268 CNS = tested on: SF-268 CNS
# SF-295 CNS = tested on: SF-295 CNS
# SF-539 CNS = tested on: SF-539 CNS
# SK-MEL-2 melanoma = tested on: SK-MEL-2 melanoma
# SK-MEL-28 melanoma = tested on: SK-MEL-28 melanoma
# SK-MEL-5 melanoma = tested on: SK-MEL-5 melanoma
# SK-OV-3 ovarian = tested on: SK-OV-3 ovarian
# SN12C renal = tested on: SN12C renal
# SNB-19 CNS = tested on: SNB-19 CNS
# SNB-75 CNS = tested on: SNB-75 CNS
# SW-620 colon = tested on: SW-620 colon
# T-47D breast = tested on: T-47D breast
# TK-10 renal = tested on: TK-10 renal
# U251 CNS = tested on: U251 CNS
# UACC-257 melanoma = tested on: UACC-257 melanoma
# UACC-62 melanoma = tested on: UACC-62 melanoma
# UO-31 renal = tested on: UO-31 renal
smiles,measurement,setting,value
O=C(C(Br)C(Br)c1ccccc1)C(Br)C(Br)c1ccccc1 (stereo not given),GI50,786-0 renal,828 nM
same,TGI,786-0 renal,2210 nM
same,GI50,A498 renal,1720 nM
same,TGI,A498 renal,4.12 µM
same,GI50,A549 NSCLC,2880 nM
same,TGI,A549 NSCLC,10.1 µM
same,GI50,ACHN renal,253 nM
same,TGI,ACHN renal,630 nM
same,GI50,BT-549 breast,1860 nM
same,TGI,BT-549 breast,3.39 µM
same,GI50,CAKI-1 renal,389 nM
same,TGI,CAKI-1 renal,1370 nM
same,GI50,CCRF-CEM leukemia,236 nM
same,TGI,CCRF-CEM leukemia,886 nM
same,GI50,COLO 205 colon,1070 nM
same,TGI,COLO 205 colon,2800 nM
same,GI50,DU-145 prostate,1460 nM
same,TGI,DU-145 prostate,2910 nM
same,GI50,HCC-2998 colon,1910 nM
same,TGI,HCC-2998 colon,3.52 µM
same,GI50,HCT-116 colon,198 nM
same,TGI,HCT-116 colon,400 nM
same,GI50,HCT-15 colon,277 nM
same,TGI,HCT-15 colon,849 nM
same,GI50,HL-60(TB) leukemia,694 nM
same,TGI,HL-60(TB) leukemia,2750 nM
same,GI50,HOP-62 NSCLC,3.08 µM
same,TGI,HOP-62 NSCLC,8.89 µM
same,GI50,HOP-92 NSCLC,1460 nM
same,TGI,HOP-92 NSCLC,3.01 µM
same,GI50,HS 578T breast,2580 nM
same,TGI,HS 578T breast,8.4 µM
same,GI50,HT29 colon,346 nM
same,TGI,HT29 colon,1200 nM
same,GI50,IGROV1 ovarian,1610 nM
same,TGI,IGROV1 ovarian,3.41 µM
same,GI50,K-562 leukemia,302 nM
same,TGI,K-562 leukemia,1380 nM
same,GI50,KM12 colon,2100 nM
same,TGI,KM12 colon,4.27 µM
same,GI50,LOX IMVI melanoma,633 nM
same,TGI,LOX IMVI melanoma,1880 nM
same,GI50,M14 melanoma,1950 nM
same,TGI,M14 melanoma,4.41 µM
same,GI50,MALME-3M melanoma,1400 nM
same,TGI,MALME-3M melanoma,3.4 µM
same,GI50,MDA-MB-231 breast,1310 nM
same,TGI,MDA-MB-231 breast,2830 nM
same,GI50,MDA-MB-435,1140 nM
same,TGI,MDA-MB-435,3.07 µM
same,GI50,MOLT-4 leukemia,348 nM
same,TGI,MOLT-4 leukemia,1410 nM
same,GI50,NCI-H226 lung,1740 nM
same,TGI,NCI-H226 lung,3.71 µM
same,GI50,NCI-H23 lung,2020 nM
same,TGI,NCI-H23 lung,4.83 µM
same,GI50,NCI-H460 lung,2270 nM
same,TGI,NCI-H460 lung,5.3 µM
same,GI50,NCI-H522 lung,233 nM
same,TGI,NCI-H522 lung,610 nM
same,GI50,NCI/ADR-RES ovarian,2950 nM
same,TGI,NCI/ADR-RES ovarian,13.3 µM
same,GI50,OVCAR-3 ovarian,511 nM
same,TGI,OVCAR-3 ovarian,1670 nM
same,GI50,OVCAR-4 ovarian,1140 nM
same,TGI,OVCAR-4 ovarian,2520 nM
same,GI50,OVCAR-5 ovarian,1570 nM
same,TGI,OVCAR-5 ovarian,2950 nM
same,GI50,OVCAR-8 ovarian,665 nM
same,TGI,OVCAR-8 ovarian,2220 nM
same,GI50,PC-3 prostate,2030 nM
same,TGI,PC-3 prostate,5.4 µM
same,GI50,RPMI-8226 leukemia,325 nM
same,TGI,RPMI-8226 leukemia,1330 nM
same,GI50,RXF 393 renal,527 nM
same,TGI,RXF 393 renal,1770 nM
same,GI50,SF-268 CNS,2260 nM
same,TGI,SF-268 CNS,5.62 µM
same,GI50,SF-295 CNS,4.6 µM
same,TGI,SF-295 CNS,13.6 µM
same,GI50,SF-539 CNS,1660 nM
same,TGI,SF-539 CNS,3.19 µM
same,GI50,SK-MEL-2 melanoma,1870 nM
same,TGI,SK-MEL-2 melanoma,3.78 µM
same,GI50,SK-MEL-28 melanoma,1620 nM
same,TGI,SK-MEL-28 melanoma,3.36 µM
same,GI50,SK-MEL-5 melanoma,1690 nM
same,TGI,SK-MEL-5 melanoma,3.51 µM
same,GI50,SK-OV-3 ovarian,4.67 µM
same,TGI,SK-OV-3 ovarian,19.3 µM
same,GI50,SN12C renal,1780 nM
same,TGI,SN12C renal,3.83 µM
same,GI50,SNB-19 CNS,3.49 µM
same,TGI,SNB-19 CNS,14.9 µM
same,GI50,SNB-75 CNS,1770 nM
same,TGI,SNB-75 CNS,6.14 µM
same,GI50,SW-620 colon,321 nM
same,TGI,SW-620 colon,1090 nM
same,GI50,T-47D breast,279 nM
same,TGI,T-47D breast,1420 nM
same,GI50,TK-10 renal,311 nM
same,TGI,TK-10 renal,1440 nM
same,GI50,U251 CNS,1890 nM
same,TGI,U251 CNS,4.53 µM
same,GI50,UACC-257 melanoma,1370 nM
same,TGI,UACC-257 melanoma,2920 nM
same,GI50,UACC-62 melanoma,1320 nM
same,TGI,UACC-62 melanoma,2690 nM
same,GI50,UO-31 renal,236 nM
same,TGI,UO-31 renal,846 nM
